Experimental data published in US20040161781A1, “Compositions and methods for identifying thymidylate synthase modulators” (priority 2002, published 2004).
“Also recorded” adds a separate entry of the source. *1 amine or outer side, *2 acyl side, *3 side chain or, on linkers, in order; H or OH if unused. Where a SMILES comes first, the peptide text is derived from it. Bridges are numbered along the chain shown (N, C = ends). Roman numbers before positions name the chains, in order. [ ]: non-standard residue; d: D form. Actinocin(9to1) = Cc1c2oc3c(C)ccc(C(=O)[*:1])c3nc-2c(C(=O)[*:2])c(N)c1=O; NMeV = CN[C@H](C(=O)O)C(C)C; Sar = CNCC(=O)O

Assays:
Type in all cases: cell-based, human
[1] = tested on: thymidylate synthase (TS); assay: Luciferase induction in H630 cells containing pG3E1-2TBE-Neo by acyl homoserine lactone; conditions: 18 h
Description: FIG. 7. Induction of luciferase as a function of 3-oxo-6-hexanoyl-homoserine lactone concentrations. H630 cells containing pG3E1-2TBE-Neo were exposed to the indicated concentrations of 3-oxo-6-hexanoyl homoserine lactone for 18 hrs then analyzed for luciferase activity.
FIG. 8. Comparison of 5-fluorouracil (5-FU) and 3-oxo-hexanoyl-homoserine lactone on induction of luciferase. H630 cells containing pG3E1-2TBE-Neo were exposed to the indicated concentrations of each compound for 18 hrs and analyzed for luciferase activity.
H630 cells containing pG3E1-2TBE-Neo were exposed to the indicated concentrations of 3-oxo-6-hexanoyl homoserine lactone for 18 h then analyzed for luciferase activity (FIG. 7).

[2] = tested on: thymidylate synthase (TS); assay: Down-regulation of TS in H630 cells treated with acyl-homoserine lactones (Western blotting); conditions: overnight (approximately 16 hours)
Description: FIG. 6. A representation of the ability of acyl homoserine lactones to down-regulate TS in H630 cells.
The signaling molecules produced by the rTS signaling pathway cause a decrease in the amount of TS found in cells. These signaling molecules can simulate the effects of the compound 3-oxo-hexanoyl homoserine lactone in activating the receptor for this compound when it is present in a recombinant bacteria. […] This hypothesis was validated by the results of an experiment portrayed in FIG. 6. Accordingly, the down-regulation of TS in H630 (human colon cancer) cells treated with acyl-homoserine lactones was tested. Cells growing in RPMI 1640 culture medium, supplemented with 10% dialyzed fetal bovine serum at 37° C. in an atmosphere of 95:5 air:CO2. The compounds with the structures shown were added to the cells and allowed to incubate overnight (approximately 16 hours). The cells were extracted and TS measured by Western blotting as described. The compounds from top to bottom are: (1) 3-hydroxy butanoyl homoserine lactone, (2) butanoyl homoserine lactone; (3) 3-oxo-hexanoyl homoserine lactone; (4) d, 1-hexanoyl homoserine lactone, and (5) 1-homoserine lactone. Tubulin is shown as a loading standard.

[3] = tested on: TS mRNA; assay: Evaluation of TS mRNA expression by RT-PCR in H630-C6 cells; conditions: 18 hr exposure
Experimental: FIGS. 5a and 5b. Evaluation of TS mRNA expression by RT-PCR. H630-C6 cells were exposed to the indicated compounds for 18 hr and total RNA was obtained for RT-PCR. Results are shown for 35 cycles of amplification. […] Similar results were obtained at lower cycles (data not shown).
This example describes the TS mRNA levels in the presence of various TS inhibitors. RNA was prepared using an RNAqueous kit (Ambion, Austin, Tex.). Reverse transcription was done using a Cells-to-cDNA kit (Ambion, Austin, Tex.). Polymerase chain reaction (PCR) was performed as described previously (Dolnick et al., 1992). Primers used for TS mRNA are 5′-TTTGGACAGCCTGGGATTCTC-3′ (Sense—SEQ ID NO:6) and 5′-AAAGCACCCTAAACAGCCATT-3′ (antisense—SEQ ID NO:7), generated a 600-bp PCR product. Primers used for β-actin are 5′-CAGCTCACCATGGATGATGATA-3′ (sense—SEQ ID NO:8) and 5′-CCA GAC GCA GGA TGG CAT-3′ (antisense—SEQ ID NO:9), generated a 543-bp PCR product. The PCR cycling condition used was: 95° C. for 30 seconds, 60° C. for 30 seconds, 72° C. for 1 minute, repeated for 25, 30 and 35 cycles (for TS) or 20, 25 and 30 cycles (for β-actin). Product formation was evaluated by ethidium bromide staining and was resolved by electrophoresis in 1.5% agarose gels.

[4] = tested on: thymidylate synthase (TS); assay: Luciferase assay in stably transfected H630-C6 cells (pG3E1-2TBE-Neo); conditions: H630-C6 cells
Experimental: FIGS. 3a-3j. RLU production in H630-C6 cells in response to TS inhibitors. H630-C6 cells were evaluated for luciferase activity in response to treatment with the indicated compounds. The cells were exposed to the compounds at the indicated concentrations for 18 hr and luciferase assays were then performed according to the manufacturer's instructions. The mean values of triplicates or quadruplicates are shown along with the standard derivations.
This example describes the stable transfection of cells with the DNA construct of the present invention. To facilitate selection of stable transformants, we added a neomycin-resistance gene to the pG3E1-2TBE (FIG. 1) to generate a new plasmid termed pG3E1-2TBE-Neo as follows. For stable transfection, pG3E1-2TBE-Neo was linearized at the ampicillin resistance gene with Ase I and was introduced into H630 cells as described above. At 24 hrs post-transfection, the cells were exposed to 400 μg/ml of G418 for two weeks. Individual clones were picked at that time and screened for their ability to induce luciferase in response to treatment with 5-FU, a known TS inhibitor. Following selection with G418 and evaluation for changes in luciferase activity after exposure of the cells to 5-FU, the cloned subline H630/pG3E1-2TBE-Neo-L1-2-C6 (H630-C6) was chosen for further study.
The stably transfected H630-C6 cell line was maintained in RPMI 1640 plus 10% dialyzed FBS and 400 μg/ml of geneticin (G418). For luciferase assays, 2×10^4 cells were seeded in each well of a 24-well plate in RPMI 1640 medium plus 10% FBS without G418 and were allowed to attach at least six hr, followed by drug exposure overnight (approximately 18 hr). The cells were then washed with PBS (137 mM NaCl, 2.7 mM KCl, 4.3 mM Na2HPO4, 1.4 mM KH2PO4, pH 7.4), lysed with Passive Lysis Buffer (Promega, Madison) and assayed for luciferase activity using the Luciferase Assay System (Promega, Madison, Wis.) according to the manufacturer's instructions. Relative light units (RLU) were measured with a Lumat LB 9501 luminometer (EG & G Berthold, Wildbad, Germany).
To test H630-C6 as a tool to identify TS modulators three different classes of compounds, i.e., specific or predominantly specific TS inhibitors, agents that inhibit folate pathways or inhibit TS as well as having other targets, and agents that act through TS unrelated sites of action were evaluated for their ability to induce changes in luciferase activity.

[5] = tested on: thymidylate synthase (TS); assay: Evaluation of TS expression by Western blotting in H630-C6 cells
Experimental: FIGS. 4a and 4b. Evaluation of TS expression by Western blotting. […] The cells were harvested for Western blots.
This example describes the relationship between TS levels and luciferase production by various known TS inhibitors. Western blotting was performed as previously described (Dolnick and Black, 1996). Briefly, H630-C6 cells were washed with PBS and extracted with RIPA buffer. 10 μg of total protein was resolved by electrophoresis in a 10% SDS-PAGE and was blotted onto a PVDF membrane (Immobilon-P, Millipore, Bedford, Mass.). The membrane was hybridized with rabbit polyclonal antibody against TS (a gift from Dr. Edward Chu, VA Cancer Center, Yale University, West Haven, Conn.) diluted in SuperBlock Blocking Buffer (Pierce, Rockford, Ill.) plus 0.25% Tween 20 for one hour and hybridized with HRP-linked anti-rabbit secondary antibody (Jackson Laboratories) for an additional one hour. The membrane was detected with SuperSignal West Dura Extended Duration Substrate (Pierce, Rockford, Ill.) and was visualized by exposing the blot to Kodak XAR-5 film. […] The resulting signal was detected as described above.
The induction of luciferase activity depends upon the ability to reduce the amount of endogenous TS bound to the TBEs in the recombinant luciferase transcripts. Dissociation of TS from the luciferase reporter mRNA is expected to be accompanied by the removal of TS from TBEs located in other mRNAs as well, such as endogenous TS mRNA. Therefore, an increase in TS is expected to accompany the increase in luciferase. To verify whether a translational mechanism is involved we evaluated the levels of TS from cells treated with the compounds described above by Western blotting.

| SMILES | luciferase activity as a function of concentration [1] | down-regulation of TS (Western blotting), in words [2] | TS mRNA level by RT-PCR [3] | increase of luciferase ([4]; 50 μM, 18 hr) | change in luciferase activity (RLU), in words ([4]; 18 hr exposure) | TS protein level by Western blotting ([5]; H630-C6 cells, 18 hr treatment) | TS levels as a function of time (time course) ([5]; by 24 hr, data not shown) |
| --- | --- | --- | --- | --- | --- | --- | --- |
| CCCC(=O)CC(=O)N[C@H]1CCOC1=O [3-oxo-hexanoyl homoserine lactone] | increased the luciferase activity | most active of all the compounds shown | – | – | – | – | – |
| Cc1c2oc3c(C)ccc(C(=O)N[C@@H]4C(=O)N[C@H](C(C)C)C(=O)N5CCC[C@H]5C(=O)N(C)CC(=O)N(C)[C@@H](C(C)C)C(=O)O[C@@H]4C)c3nc-2c(C(=O)N[C@@H]2C(=O)N[C@H](C(C)C)C(=O)N3CCC[C@H]3C(=O)N(C)CC(=O)N(C)[C@@H](C(C)C)C(=O)O[C@@H]2C)c(N)c1=O [Act D, actinomycin D] (I: T[dV]P[Sar][NMeV] / II: T[dV]P[Sar][NMeV]; ester I:1-I:C, II:1-II:C; linker I:N-II:N via Actinocin(9to1)) | – | – | not altered | up to 3.5 fold | concentration-dependent increase of RLU | no increase of TS protein; also recorded: did not induce TS levels | dropped |
